Where two headings read alike, the source gives them in different places.
Legend:
[1] = system: NQO1 mRNA in BEAS-2B cells; experiment: Beas2B NQO1 mRNA cell based assay; design: species or system human; details: 24 h compound treatment, increase in NQO1 mRNA vs vehicle (0.1% DMSO), read-out: EC50
Protocol: Beas2B NQO1 mRNA Cell Based Assay
The up regulation of the NRF2 mediated gene NAD(P)H:quinone acceptor oxidoreductase 1 (NQO1) was measured using the following assay method: BEAS-2B cells (ATCC CRL-9609) were plated in 96-well clear plates at 20,000 cells/well in 75 μL of cell culture media and incubated overnight (37° C., 5% CO2). On day 2, 25 μL of compound or controls were added to the cells for 24 h. On day 3, the medium was aspirated from the plate and the Cells-to-CT™ 1-Step TaqMan® Kit (Ambion A25603) was used to perform expression analysis directly from cultured cells without RNA purification according to the manufacturer's instructions.
Briefly, cells were washed with ice cold PBS and 22.5 μL of room-temperature DNase/Lysis solution was added to the cells and incubated at room temperature for 5 minutes. To stop the reaction, 2.25 μL of stop solution was added to the cell lysate. The samples were diluted 1:5 using nuclease free water and 2.5 μL transferred into the PCR plate. Real-time PCR was performed using the C-1000 Thermal Cycler (Bio-Rad) using human beta actin as the internal control. The cDNA was amplified with a specific primer for NQO1 using the 1-step RT-PCR master mix (Ambion Cells-to-CT™ 1-Step TaqMan® Kit A25603). The primers/probes sets that were used for amplification of cDNA were obtained from TaqMan Gene Expression Assays (Applied Biosystems). The comparative CT (ΔΔCT) relative quantification method was used to calculate the relative mRNA level of the target gene NQO1 as described in the Applied Biosystems Chemistry Guide.

[2] = target: human KEAP1 (N-term, residues 321-609) (Homo sapiens, UniProt Q14145); experiment: biochemical;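 further: fluorescence polarization competition assay of Kelch domain binding to NRF2, 12-point 1:3 dilution series from 10 µM, read after 1 h at room temperature, floor 10 nM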
Chain of human KEAP1 (N-term, residues 321-609) (Q14145 321-609): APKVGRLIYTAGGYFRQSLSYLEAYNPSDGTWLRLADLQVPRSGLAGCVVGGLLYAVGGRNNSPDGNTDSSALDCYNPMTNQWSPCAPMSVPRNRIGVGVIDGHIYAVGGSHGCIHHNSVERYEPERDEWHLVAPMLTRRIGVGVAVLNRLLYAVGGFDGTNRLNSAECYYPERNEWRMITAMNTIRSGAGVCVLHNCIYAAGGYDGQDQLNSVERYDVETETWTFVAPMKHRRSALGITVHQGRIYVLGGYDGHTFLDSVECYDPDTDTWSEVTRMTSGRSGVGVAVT

| Compound | IC50 [2] [nM] | EC50 ([1]; Homo sapiens, BEAS-2B, 24 h) [nM] | EC50 [1] [nM] |
| --- | --- | --- | --- |
| Cn1nnc(COc2ccc(Cl)c3c2[C@@H](CN2CC4(CC4)CC2=O)N(C(=O)[C@@H]2CCCC[C@]2(C)C(=O)O)CC3)c1C1COC1 [Example 199, (1S,2R)-2-((S)-5-chloro-8-((1-methyl-5-(oxetan-3-yl)-1H-1,2,3-triazol-4-yl)methoxy)-1-((6-oxo-5-azaspiro [2.4]heptan-5-yl)methyl)-1,2,3,4-tetrahydroisoquinoline-2-carbonyl)-1-methylcyclohexane-1-carboxylic acid] | 5.3 | 0.34 |  |
| CC(Oc1ccc(Br)c2c1[C@@H](CN1Cc3ccccc3C1=O)N(C(=O)[C@@H]1CCCC[C@@H]1C(=O)O)CC2)c1cn(C(C)C)nn1 (single isomer, unassigned) [Example 47] | 68 |  | 76 |
| C[C@@H]1CCN(C[C@@H]2c3c(OCc4nnn(C)c4C(F)F)ccc(Cl)c3CCN2C(=O)[C@@H]2CCCC[C@]2(C)C(=O)O)C1=O [Example 112, (1S,2R)-2-((S)-5-Chloro-8-((5-(difluoromethyl)-1-methyl-1H-1,2,3-triazol-4-yl)methoxy)-1-(((R)-3-methyl-2-oxopyrrolidin-1-yl)methyl)-1,2,3,4-tetrahydroisoquinoline-2-carbonyl)-1-methylcyclohexane-1-carboxylic acid] | 9.4 | 280 |  |
| Cn1nnc2c1CC(Oc1ccc(Cl)c3c1[C@@H](CN1CC4(CC4)CC1=O)N(C(=O)[C@@H]1CCCC[C@]1(C)C(=O)O)CC3)C2 (single isomer, unassigned; isomer 1) [Example 215] | 71 |  | 550 |
| C[C@]1(C(=O)O)CCCC[C@H]1C(=O)N1CCc2c(F)ccc(OCc3nnn4c3CCCC4)c2[C@H]1CN1CC2(CC2)CC1=O [Example 182, (1S,2R)-2-((S)-5-fluoro-1-((6-oxo-5-azaspiro[2.4]heptan-5-yl)methyl)-8-((4,5,6,7-tetrahydro-[1,2,3]triazolo[1,5-a]pyridin-3-yl)methoxy)-1,2,3,4-tetrahydroisoquinoline-2-carbonyl)-1-methylcyclohexane-1-carboxylic acid] | 5.1 | 0.83 |  |
| O=C(O)[C@H]1CCCC[C@H]1C(=O)N1CCc2c(Br)ccc(OCc3cn(CC4CC4)nn3)c2[C@H]1CN1Cc2ccccc2C1=O [Example 31, (1S,2R)-2-((S)-5-bromo-8-((1-(cyclopropylmethyl)-1 1,2,3-triazol-4-yl)methoxy)-1-((1-oxoisoindolin-2-yl)methyl)-1,2,3,4-tetrahydroisoquinoline-2-carbonyl)cyclohexane-1-carboxylic acid] | 4.5 | 8.5 |  |
| C[C@]1(C(=O)O)CCC[C@H]1C(=O)N1CCc2c(Cl)ccc(OCc3nnn4c3CCCC4)c2[C@H]1CN1CC2(CC2)CC1=O [Example 180, (1S,2R)-2-((S)-5-chloro-1-((6-oxo-5-azaspiro[2.4]heptan-5-yl)methyl)-8-((4,5,6,7-tetrahydro-[1,2,3]triazolo[1,5-a]pyridin-3-yl)methoxy)-1,2,3,4-tetrahydroisoquinoline-2-carbonyl)-1-methylcyclopentane-1-carboxylic acid] | 7.6 | 1.1 |  |
| Cn1nnc(COc2ccc(Cl)c3c2[C@@H](CN2CCCC2=O)N(C(=O)C2CC(F)(F)CC2C(=O)O)CC3)c1C(F)F (stereo partly drawn) [Example 101, 2-((S)-5-chloro-8-((5-(difluoromethyl)-1-methyl-1H-1,2,3-triazol-4-yl)methoxy)-1-((2-oxopyrrolidin-1-yl)methyl)-1,2,3,4-tetrahydroisoquinoline-2-carbonyl)-4,4-difluorocyclopentane-1-carboxylic acid] | 1900 | 710 |  |
| COCc1c(COc2ccc(Cl)c3c2[C@@H](CN2CC4(CC4)CC2=O)N(C(=O)[C@@H]2CCCC[C@]2(C)C(=O)O)CC3)nnn1C [Example 160, (1S,2R)-2-((S)-5-chloro-8-((5-(methoxymethyl)-1-methyl-1H-1,2,3-triazol-4-yl)methoxy)-1-((6-oxo-5-azaspiro [2.4]heptan-5-yl)methyl)-1,2,3,4-tetrahydroisoquinoline-2-carbonyl)-1-methylcyclohexane-1-carboxylic acid] | 5 | 0.72 |  |
| CCn1nnc(COc2ccc(Cl)c3c2[C@@H](CN2CCCC2=O)N(C(=O)[C@@H]2CCC[C@]2(C)C(=O)O)CC3)c1C(F)F [Example 119, (1S,2R)-2-((S)-5-chloro-8-((5-(difluoromethyl)-1-ethyl-1H-1,2,3-triazol-4-yl)methoxy)-1-((2-oxopyrrolidin-1-yl)methyl)-1,2,3,4-tetrahydroisoquinoline-2-carbonyl)-1-methylcyclopentane-1-carboxylic acid] | 8.1 | 18 |  |
| O=C(O)[C@H]1CCCC[C@H]1C(=O)N1CCc2c(Cl)ccc(OCc3noc4ncccc34)c2[C@H]1CN1CCCC1=O [Example 93, (1S,2R)-2-((S)-5-Chloro-8-(isoxazolo[5,4-b]pyridin-3-ylmethoxy)-1-((2-oxopyrrolidin-1-yl)methyl)-1,2,3,4-tetrahydroisoquinoline-2-carbonyl) cyclohexane-1-carboxylic acid] | 7.2 | 15 |  |

More lines, in order of falling IC50 [2], values ahead:

| IC50 [2] [nM] | Compound | EC50 ([1]; Homo sapiens, BEAS-2B, 24 h) [nM] | EC50 [1] [nM] |
| --- | --- | --- | --- |
| 16 | CC1CCN(C[C@@H]2c3c(OCc4cn(C(C)C)nn4)ccc(Br)c3CCN2C(=O)[C@@H]2CCCC[C@@H]2C(=O)O)C1=O (single isomer, unassigned) [Example 73] |  | 130 |
| 8.4 | O=C(O)[C@H]1CCCC[C@H]1C(=O)N1CCc2c(Cl)ccc(OCc3nsc4ccccc34)c2[C@H]1CN1CCCC1=O [Example 68, (1S,2R)-2-((S)-8-(Benzo[d]isothiazol-3-ylmethoxy)-5-chloro-1-((2-oxopyrrolidin-1-yl)methyl)-1,2,3,4-tetrahydroisoquinoline-2-carbonyl)cyclohexane-1-carboxylic acid] | 32 |  |
| 8 | Cc1noc2nc(COc3ccc(Cl)c4c3[C@@H](CN3CCCC3=O)N(C(=O)[C@@H]3CCCC[C@@H]3C(=O)O)CC4)ccc12 [Example 95, (1S,2R)-2-((S)-5-Chloro-8-((3-methylisoxazolo[5,4-b]pyridin-6-yl)methoxy)-1-((2-oxopyrrolidin-1-yl)methyl)-1,2,3,4-tetrahydroisoquinoline-2-carbonyl) cyclohexane-1-carboxylic acid] | 3.7 |  |
| 7.4 | C[C@H]1CCN(C[C@@H]2c3c(OCc4nnn(C)c4C(F)F)ccc(Cl)c3CCN2C(=O)[C@@H]2CCC[C@]2(C)C(=O)O)C1=O [Example 114, (1S,2R)-2-((1S)-5-Chloro-8-((5-(difluoromethyl)-1-methyl-1H-1,2,3-triazol-4-yl)methoxy)-1-(((S)-3-methyl-2-oxopyrrolidin-1-yl)methyl)-1,2,3,4-tetrahydroisoquinoline-2-carbonyl)-1-methylcyclopentane-1-carboxylic acid] | 16 |  |
| 5.2 | Cn1nnc(COc2ccc(Br)c3c2[C@@H](CN2CC4(CC4)CC2=O)N(C(=O)[C@@H]2CCCC[C@]2(C)C(=O)O)CC3)c1C(F)F [Example 198, (1S,2R)-2-((S)-5-bromo-8-((5-(difluoromethyl)-1-methyl-1H-1,2,3-triazol-4-yl)methoxy)-1-((6-oxo-5-azaspiro [2.4]heptan-5-yl)methyl)-1,2,3,4-tetrahydroisoquinoline-2-carbonyl)-1-methylcyclohexane-1-carboxylic acid] | 0.24 |  |
| 5.2 | Cn1c(COc2ccc(Cl)c3c2[C@@H](CN2CC4(CC4)CC2=O)N(C(=O)[C@@H]2CCCC[C@]2(C)C(=O)O)CC3)cccc1=O [Example 214, (1S,2R)-2-((S)-5-chloro-8-((1-methyl-6-oxo-1,6-dihydropyridin-2-yl)methoxy)-1-((6-oxo-5-azaspiro [2.4]heptan-5-yl)methyl)-1,2,3,4-tetrahydroisoquinoline-2-carbonyl)-1-methylcyclohexane-1-carboxylic acid] | 41 |  |
| 5.1 | Cn1nnc(COc2ccc(Cl)c3c2[C@@H](CN2CCOCC2=O)N(C(=O)[C@@H]2CCCC[C@]2(C)C(=O)O)CC3)c1C(F)F [Example 200, (1S,2R)-2-((S)-5-chloro-8-((5-(difluoromethyl)-1-methyl-1H-1,2,3-triazol-4-yl)methoxy)-1-((3-oxomorpholino)methyl)-1,2,3,4-tetrahydroisoquinoline-2-carbonyl)-1-methylcyclohexane-1-carboxylic acid] | 1.2 |  |
| 5 | C[C@]1(C(=O)O)CCCC[C@H]1C(=O)N1CCc2c(Cl)ccc(OCc3nnn4c3COCC4)c2[C@H]1CN1CC2(CC2)CC1=O [Example 189, (1S,2R)-2-((S)-5-chloro-8-((6,7-dihydro-4H-[1,2,3]triazolo[5,1-c][1,4]oxazin-3-yl)methoxy)-1-((6-oxo-5-azaspiro[2.4]heptan-5-yl)methyl)-1,2,3,4-tetrahydroisoquinoline-2-carbonyl)-1-methylcyclohexane-1-carboxylic acid] | 0.27 |  |

— patent US12098148B2, “Therapeutic compounds” (C4X Discovery Limited, priority 2018, dated 2024)
